Assay results published in PMC5999115, “Anti-tumor activity of phenoxybenzamine and its inhibition of histone deacetylases” (PLoS ONE, 2018).

How the values were obtained:
Test in all cases: Oncotest CellTiter-Blue cell viability assay, 72 hours
Format in all cases: cell-based, human
LYXF DLBC SU-DHL-1 = test system: LYXF DLBC SU-DHL-1
Protocol: (§1) Further studies with varying drug concentrations on selected human cell lines, in most cases those studied in the NCI60 screen, were conducted by Oncotest GmbH laboratories, Freiburg, Germany; Oncotest is a division of Charles River Laboratories. The dissolution procedure for PBZ and the cell culture […] was 72 hours; anti-tumor activity was determined with the CellTiter-Blue® Cell Viability Assay, Promega, Mannheim, Germany. The 50% Inhibitory (IC50) concentrations were determined. The results are the average of duplicate assays. Paclitaxel was included as a reference compound to confirm the integrity of the assays. See S1 Appendix for further details.
(§2) “Cell lines were routinely passaged once or twice weekly and maintained in culture for up to 20 passages. Cells were grown at 37°C in a humidified atmosphere with 5% CO2 in RPMI 1640 medium (25 mM HEPES, with L-glutamine, #FG1385, Biochrom, Berlin, Germany) supplemented with 10% (v/v) fetal calf serum (Sigma, Taufkirchen, Germany) and 0.1 mg/mL gentamicin (Life Technologies, Karlsruhe, Germany).”

MEXF UACC-257 = test system: MEXF UACC-257
Protocol: as §1, §2

LXFS DMS 273 = test system: LXFS DMS 273
Protocol: as §1, §2

MAXF T47D = test system: MAXF T47D
Protocol: as §1, §2

[1] = LYXF SU-DHL-1, 1% FCS, study P495C
[2] = LYXF SU-DHL-1, 10% FCS, study P495B
[3] = MEXF UACC-257, 1% FCS, study P495C
[4] = MEXF UACC-257, 10% FCS, study P495A
[5] = LXFS DMS273, 1% FCS, study P495C
[6] = LXFS DMS273, 10% FCS, study P495A

CC(COc1ccccc1)N(CCCl)Cc1ccccc1 (stereo not shown) [PBZ, phenoxybenzamine]
IC50 (LYXF DLBC SU-DHL-1; Homo sapiens, LYXFDLBC SU-DHL-1 Lymphoma, 1% FCS): 29.5 µM | Test/Control (%) at Drug Concentration [uM] 1,0E+00 (LYXF DLBC SU-DHL-1; [1]): 97% | Test/Control (%) at Drug Concentration [uM] 1,0E+01 (LYXF DLBC SU-DHL-1; [1]): 91% | Test/Control (%) at Drug Concentration [uM] 1,0E+02 (LYXF DLBC SU-DHL-1; [1]): 7% | Test/Control (%) at Drug Concentration [uM] 3,2E+00 (LYXF DLBC SU-DHL-1; [1]): 96% | Test/Control (%) at Drug Concentration [uM] 3,2E+01 (LYXF DLBC SU-DHL-1; [1]): 45% | Test/Control (%) at Drug Concentration [uM] 1,0E+00 (LYXF DLBC SU-DHL-1; [2]): 98% | Test/Control (%) at Drug Concentration [uM] 1,0E+01 (LYXF DLBC SU-DHL-1; [2]): 100% | Test/Control (%) at Drug Concentration [uM] 1,0E+02 (LYXF DLBC SU-DHL-1; [2]): 0% | Test/Control (%) at Drug Concentration [uM] 1,0E-01 (LYXF DLBC SU-DHL-1; [2]): 100% | Test/Control (%) at Drug Concentration [uM] 1,0E-02 (LYXF DLBC SU-DHL-1; [2]): 100% | Test/Control (%) at Drug Concentration [uM] 1,0E-03 (LYXF DLBC SU-DHL-1; [2]): 100% | Test/Control (%) at Drug Concentration [uM] 3,2E+00 (LYXF DLBC SU-DHL-1; [2]): 100% | Test/Control (%) at Drug Concentration [uM] 3,2E+01 (LYXF DLBC SU-DHL-1; [2]): 94% | Percent cell growth in Oncotest screen with 10% FCS (72 hr incubation) (MEXF UACC-257; 10 μM phenoxybenzamine, UACC-257): 107% | IC50 (MEXF UACC-257; Homo sapiens, MEXF UACC-257 Melanoma, 1% FCS): 49.8 µM | Test/Control (%) at Drug Concentration [uM] 1,0E+00 (MEXF UACC-257; [3]): 101% | Test/Control (%) at Drug Concentration [uM] 1,0E+01 (MEXF UACC-257; [3]): 107% | Test/Control (%) at Drug Concentration [uM] 1,0E+02 (MEXF UACC-257; [3]): 41% | Test/Control (%) at Drug Concentration [uM] 3,2E+00 (MEXF UACC-257; [3]): 106% | Test/Control (%) at Drug Concentration [uM] 3,2E+01 (MEXF UACC-257; [3]): 77% | Test/Control (%) at Drug Concentration [uM] 1,0E+00 (MEXF UACC-257; [4]): 101% | Test/Control (%) at Drug Concentration [uM] 1,0E+01 (MEXF UACC-257; [4]): 107% | Test/Control (%) at Drug Concentration [uM] 1,0E+02 (MEXF UACC-257; [4]): 68% | Test/Control (%) at Drug Concentration [uM] 1,0E-01 (MEXF UACC-257; [4]): 101% | Test/Control (%) at Drug Concentration [uM] 1,0E-02 (MEXF UACC-257; [4]): 101% | Test/Control (%) at Drug Concentration [uM] 3,2E+00 (MEXF UACC-257; [4]): 109% | Test/Control (%) at Drug Concentration [uM] 3,2E+01 (MEXF UACC-257; [4]): 106% | Test/Control (%) at Drug Concentration [uM] 3,2E-01 (MEXF UACC-257; [4]): 104% | Test/Control (%) at Drug Concentration [uM] 3,2E-02 (MEXF UACC-257; [4]): 113% | Test/Control (%) at Drug Concentration [uM] 3,2E-03 (MEXF UACC-257; [4]): 103% | IC50 (LXFS DMS 273; Homo sapiens, LXFS DMS 273 Small-cell lung, 1% FCS): 99.8 µM | Test/Control (%) at Drug Concentration [uM] 1,0E+00 (LXFS DMS 273; [5]): 104% | Test/Control (%) at Drug Concentration [uM] 1,0E+01 (LXFS DMS 273; [5]): 91% | Test/Control (%) at Drug Concentration [uM] 1,0E+02 (LXFS DMS 273; [5]): 49% | Test/Control (%) at Drug Concentration [uM] 3,2E+00 (LXFS DMS 273; [5]): 101% | Test/Control (%) at Drug Concentration [uM] 3,2E+01 (LXFS DMS 273; [5]): 100% | Test/Control (%) at Drug Concentration [uM] 1,0E+00 (LXFS DMS 273; [6]): 76% | Test/Control (%) at Drug Concentration [uM] 1,0E+01 (LXFS DMS 273; [6]): 82% | Test/Control (%) at Drug Concentration [uM] 1,0E+02 (LXFS DMS 273; [6]): 105% | Test/Control (%) at Drug Concentration [uM] 1,0E-01 (LXFS DMS 273; [6]): 81% | Test/Control (%) at Drug Concentration [uM] 1,0E-02 (LXFS DMS 273; [6]): 75% | Test/Control (%) at Drug Concentration [uM] 3,2E+00 (LXFS DMS 273; [6]): 87% | Test/Control (%) at Drug Concentration [uM] 3,2E+01 (LXFS DMS 273; [6]): 100% | Test/Control (%) at Drug Concentration [uM] 3,2E-01 (LXFS DMS 273; [6]): 80% | Test/Control (%) at Drug Concentration [uM] 3,2E-02 (LXFS DMS 273; [6]): 74% | Test/Control (%) at Drug Concentration [uM] 3,2E-03 (LXFS DMS 273; [6]): 83% | Percent cell growth in Oncotest screen with 10% FCS (72 hr incubation) (MAXF T47D; 10 μM phenoxybenzamine, T47D): 97% | IC50 (MAXF T47D; Homo sapiens, MAXF T47D Mammary, 1% FCS): 83.4 µM | Test/Control (%) at Drug Concentration [uM] 1,0E+00 (MAXF T47D; MAX T47D, 1% FCS, study P495C): 98% | Test/Control (%) at Drug Concentration [uM] 1,0E+01 (MAXF T47D; MAX T47D, 1% FCS, study P495C): 96% | Test/Control (%) at Drug Concentration [uM] 1,0E+02 (MAXF T47D; MAX T47D, 1% FCS, study P495C): 37% | Test/Control (%) at Drug Concentration [uM] 3,2E+00 (MAXF T47D; MAX T47D, 1% FCS, study P495C): 99% | Test/Control (%) at Drug Concentration [uM] 3,2E+01 (MAXF T47D; MAX T47D, 1% FCS, study P495C): 92% | Test/Control (%) at Drug Concentration [uM] 1,0E+00 (MAXF T47D; MAX T47D, 10% FCS, study P495A): 101% | Test/Control (%) at Drug Concentration [uM] 1,0E+01 (MAXF T47D; MAX T47D, 10% FCS, study P495A): 97% | Test/Control (%) at Drug Concentration [uM] 1,0E+02 (MAXF T47D; MAX T47D, 10% FCS, study P495A): 74% | Test/Control (%) at Drug Concentration [uM] 1,0E-01 (MAXF T47D; MAX T47D, 10% FCS, study P495A): 97% | Test/Control (%) at Drug Concentration [uM] 1,0E-02 (MAXF T47D; MAX T47D, 10% FCS, study P495A): 92% | Test/Control (%) at Drug Concentration [uM] 3,2E+00 (MAXF T47D; MAX T47D, 10% FCS, study P495A): 102% | Test/Control (%) at Drug Concentration [uM] 3,2E+01 (MAXF T47D; MAX T47D, 10% FCS, study P495A): 95%
